The text below walks through data of patent US20220218664A1, “DRUG AND METHOD FOR TREATING OR PREVENTING COMPLICATIONS FROM DIABETES, USING SAID DRUG” (TMS Co., Ltd., priority 2019, published 2022).

Holding throughout (format): in vivo, C57BL/6J male mice
The subject of experiment [1] is streptozotocin-induced diabetic mice. Briefly: Hind plantar blood flow (laser perfusion imager). Conditions: 10 mg/kg i.p. once a day. The method, then: (§1) 9-week-old C57BL/6J male mice were purchased and familiarized with an animal facility for 1 week. 200 mg/kg of streptozotocin (streptozotocin; STZ) was administered […] into the peritoneal cavity of 10-week-old mice to prepare streptozotocin-induced diabetic mice (hereinafter also referred to as “STZ administration week 0”). One week after the administration of streptozotocin, blood was collected from the tail vein of the mice, and the blood glucose level (BS) was measured using an automatic blood glucose measuring device (product name: Medisafe (trademark) Mini GR-102, made by Terumo (Co)). Mice having a blood glucose level of 400 mg/dL or more were determined to be diabetic mice.
(§2) The SMTP-44D groups, the edaravone group, and the pregabalin group were administered SMTP-44D (0.3 mg/kg, 3 mg/kg, or 30 mg/kg doses, respectively), edaravone (10 mg/kg dose), or pregabalin (10 mg/kg dose) into the peritoneal cavity once a day for 3 consecutive weeks from the day following the first week to the fourth week after STZ administration.
The hind plantar blood flows (perfusion unit: PU) of the above-mentioned STZ group, SMTP-44D groups, edaravone group, pregabalin group, and control group mice were measured under isoflurane anesthesia using a full-field laser perfusion imager.

For experiment [2] the test system is unchanged. Briefly: Von Frey test: evaluating mechanical stimulus. Conditions: 10 mg/kg i.p. once a day. The method, then: as §1, §2
The above-mentioned STZ group, SMTP-44D groups, edaravone group, pregabalin group, and control group mice were put in grid-like boxes, respectively, and were familiarized for one hour. After the familiarization, by using a Dynamic Plantar Aesthesiometer (tactometer) (manufactured by UGO BASILE Inc.), 1 g/s (that, pressurization increased by 1 g per second) of stimulation was imparted to the hind legs of these mice to measure mechanical thresholds (g) from the start of stimulation to the time when the mice withdrew their legs. The measurements were conducted for both hind legs three times at intervals of three minutes or longer, respectively. A mean value of three mechanical thresholds (g) was calculated for 1 mouse, and then a mean value of the 12 mice for the respective groups was found.

The test system is the same in experiment [3]. Briefly: Sciatic nerve conduction velocity. Conditions: 10 mg/kg i.p. once a day, 4th week. The method, then: as §1, §2
(§3) Sciatic nerves of the above-mentioned STZ group, SMTP-44D groups, edaravone group, pregabalin group, and control group mice on the 4th week were exposed under isoflurane anesthesia, and then, using the full-field laser perfusion imager, their sciatic nerve blood flows (perfusion unit: PU) were measured. After the sciatic nerve blood flows were measured, a voltage was output from a PowerLab through the […] to impart an electrical stimulus to the sciatic nerves using needle electrodes. The electrical stimulus went through the Analog Stimulus Isolator via recording electrodes attached to the gastrocnemius and was input into the PowerLab, and thus neuromuscular function response curves were measured. The sciatic nerves were stimulated between two points at 8-mm intervals. The sciatic nerve conduction velocity (m/s) was calculated by dividing the […]. The sciatic nerve blood flow and sciatic nerve conduction velocity were measured using a Hot-1 small-sized heating controller and small-sized body temperature retention device (model number: […]-1), maintaining the rectal temperature at 37° C. The measurement results are described in Table 11.

Experiment [4] has the same test system. As to the kind of experiment: Sciatic nerve blood flow. Conditions: 10 mg/kg i.p. once a day, 4th week. Here is the method: as §1, §2, §3
Where [5] appears, read: 0th week (before dosing), listed as edaravone.
Setting [6] is: 1st week (before dosing), listed as edaravone.

Regarding `CC1=NN(c2ccccc2)C(=O)C1` [Edaravone, edaravone], the “Hind plantar blood flow” value is given as 227.2 ± 12.5 PU in experiment [1] (0th week (before dosing)); 227.2±12.5 PU in experiment [1] (setting [5]); 149.7 ± 11.5 PU in experiment [1] (1st week (before dosing)); 149.7±11.5 PU in experiment [1] (setting [6]); 161.4±9.1 PU in experiment [1] (2nd week, listed as edaravone); 166.6 ± 7.5 PU in experiment [1] (3rd week). The “Hind plantar blood flow” value was 166.6±7.5 PU in experiment [1] (3rd week, listed as edaravone); 178.2 ± 9.9 PU in experiment [1] (4th week); 178.2±9.9 PU in experiment [1] (4th week, listed as edaravone). The “von Frey test mechanical threshold” value came out at 5.1 ± 0.1 g in experiment [2] (0th week (before dosing)); 5.1 ± 0.1 g in experiment [2] (setting [5]); 4.1 ± 0.1 g in experiment [2] (1st week (before dosing)); 4.1 ± 0.1 g in experiment [2] (setting [6]); 4.6 ± 0.2 g in experiment [2] (2nd week); 4.6 ± 0.2 g in experiment [2] (2nd week, listed as edaravone). Further, the “von Frey test mechanical threshold” value in experiment [2] (3rd week) worked out at 4.8 ± 0.1 g; in experiment [2] (3rd week, listed as edaravone), 4.8 ± 0.1 g; in experiment [2] (4th week), 5.1 ± 0.2 g; in experiment [2] (4th week, listed as edaravone), 5.1 ± 0.2 g. Also, the “Sciatic nerve conduction velocity” value is recorded as 63.6 ± 1.8 m/s in experiment [3] and 63.6±1.8 m/s in experiment [3] (listed as edaravone). In addition, the “Sciatic nerve blood flow” value was 1336.1 ± 46.7 PU in experiment [4] and 1336.1±46.7 PU in experiment [4] (listed as edaravone).
